Test results as given in patent US12201632B2, “Levoketoconazole for treatment of congenital adrenal hyperplasia and primary aldosteronism” (Strongbridge Dublin Limited, priority 2018, dated 2025).
Marks after values point to notes of the source that are not given here.

What was measured:
[1] = tested on: HAC15 cells; assay: Cortisol production by HAC15 cells (immunoassay); type: cell-based, Human; details: HAC15, 10 nM ACTH
Experimental: Human adrenocortical carcinoma HAC15 and mouse corticotroph AtT20 cells were used, purchased as a kind gift by Dr. W. Rainey, and obtained from Dr. J. Tooze (European Organization for Molecular Biology), respectively. Both cell lines were cultured in 75 cm^2 flasks at 37° C. in a humidified incubator (Greiner Bio-One, Alphen a/d Rijn, the Netherlands) at 5% CO2. Dulbecco's Modified Eagle Medium F12 containing 5% fetal calf serum was used for HAC15, whereas AtT20 cells were cultured in Dulbecco's minimal essential medium (DMEM) supplemented with 10% fetal calf serum. Both mediums were supplemented with L-glutamine (2 mmol/L) and penicillin (10^5 U/L). Short tandem repeat (str) profiling using a Powerplex Kit (Promega, Leiden, the Netherlands) of HAC15 and AtT20 gave results consistent with the ATCC database, confirming the identity of both cell lines. Medium and supplements were obtained from Invitrogen, Breda, the Netherlands. Once a week, cells were harvested with trypsin (0.05%)-EDTA (0.53 mM) and resuspended in culture medium. Levoketoconazole (COR-003) and racemic ketoconazole (both from Cortendo AB) were dissolved in absolute ethanol (EtOH), according to manufacturer's instructions, and stored at −20° C. at a stock concentration of […]. At the start of each experiment, both drugs were freshly prepared and diluted in EtOH in the correct concentrations. Synacten (synthetic ACTH, Novartis Pharma A.G.) stock concentration was stored at 4° C. and dissolved in culture medium at the day of use. The final concentrations of ACTH were chosen based on a dose-response curve in HAC15 cells and previously reported studies in the literature. For HAC15, 200,000 and 100,000 cells were plated in 0.5 ml medium in 24 well plates for experiments of 1 and 3 days, respectively. […]
Cortisol concentrations were measured in the supernatant using a chemiluminescence immunoassay system (Immulite 2000XPi; Siemens DPC Inc., Los Angeles, Calif., USA). In addition, we carried out multi-steroid analysis by liquid chromatography/mass spectrometry (LC/MS-MS) to accurately quantify androstenedione, corticosterone, cortisol, 11-deoxycortisol, DHEA, DHEAS, progesterone, 17-hydroxyprogesterone, and testosterone. […] Steroids were quantified with respect to a calibration series, with internal standards. Steroids were quantified on a Xevo TQS LC-MS/MS (Waters Chromatography).
Statistical analysis was performed using Graphpad Prism 6.0 (Graphpad Software, San Diego, CA). […] Effects of both compounds on the steroid profile were measured as absolute change compared to control and compared using the Student's t-test. When assessing differences between effects of both compounds, the percentage change was evaluated and compared in order to correct for differences in the vehicle treated control cells. […]

[2] = tested on: EAS associated adrenal hyperplasia cultures; assay: Cortisol production in primary EAS associated adrenal hyperplasia cultures; type: cell-based, human; details: EAS associated hyperplasia no. 1, ACTH (85 μM), mean percentage increase of cortisol production compared to control
Experimental: (§1) To obtain primary cultures, adrenal specimens (adrenocortical adenomas, adrenal hyperplasias and adrenocortical carcinomas) were collected after adrenalectomy at the department of Surgery, Erasmus University Medical Center, Rotterdam, the Netherlands, between April 2016 and May 2018. The study was conducted under guidelines that have been approved by the Medical Ethics Committee of the Erasmus Medical Center and informed consent was obtained from all patients. Immediately after surgery, specimens were minced into small pieces of 2-3 mm^3, washed in culture medium and centrifuged for 5 minutes at 600 g. The tissue was stored overnight in culture medium at 4° C., where after the tissue was centrifuged again and the supernatant was removed. Fragments were dissociated using 10-25 ml collagenase type 1 (2 mg/ml: Sigma-Aldrich), followed by incubation at 37° C. for up to two hours. Ficoll (GE healthcare) density gradient separation was used once or twice as required in order to separate contaminating red blood cells from the tumor cells. Cell viability and cell amount were counted by trypan blue exclusion. Dissociated cells were plated at a density of 10^5 cells per well. ACTH-secreting corticotroph pituitary adenoma tissue from patients with Cushing's disease (n=2) was available after transsphenoidal surgery. Single-cell suspensions of the pituitary adenoma tissues were prepared as previously described in detail.
(§2) Owing to a limited number of cells obtained from the specimens, not all experiments were carried out in every primary culture.
(§3) Cortisol concentrations were measured in the supernatant using a chemiluminescence immunoassay system (Immulite 2000XPi; Siemens DPC Inc., Los Angeles, Calif., USA). In addition, we carried out multi-steroid analysis by liquid chromatography/mass spectrometry (LC/MS-MS) to accurately quantify androstenedione, corticosterone, cortisol, 11-deoxycortisol, DHEA, DHEAS, progesterone, 17-hydroxyprogesterone, and testosterone. Concentrations that were tested on the LC/MS-MS were closest to 50% inhibition or maximal inhibition of cortisol as determined by the immunoassay. Steroids were quantified with respect to a calibration series, with internal standards. Steroids were quantified on a Xevo TQS LC-MS/MS (Waters Chromatography).
(§4) Statistical analysis was performed using Graphpad Prism 6.0 (Graphpad Software, San Diego, CA). Non-linear regression curve fitting program was used to calculate the half maximal inhibitory concentrations (IC50) on cortisol production. Effects of both compounds on the steroid profile were measured as absolute change compared to control and compared using the Student's t-test. When assessing differences between effects of both compounds, the percentage change was evaluated and compared in order to correct for differences in the vehicle treated control cells. Values of P<0.05 were considered statistically significant and data are presented as mean SEM.

[3] = tested on: primary human adrenocortical carcinoma cultures; assay: Cortisol production in primary adrenocortical carcinoma cultures; type: cell-based; details: ACC no. 3, ACTH (85 μM), mean percentage increase of cortisol production compared to control
Experimental: as §1, §2, §3, §4

[4] = tested on: HAC15 cells; assay: Steroid profile by LC/MS-MS in HAC15 cells; type: cell-based, Human; details: HAC15
Experimental: Human adrenocortical carcinoma HAC15 and mouse corticotroph AtT20 cells were used, purchased as a kind gift by Dr. W. Rainey, and obtained from Dr. J. Tooze (European Organization for Molecular Biology), respectively. Both cell lines were cultured in 75 cm^2 flasks at 37° C. in a humidified incubator (Greiner Bio-One, Alphen a/d Rijn, the Netherlands) at 5% CO2. Dulbecco's Modified Eagle Medium F12 containing 5% fetal calf serum was used for HAC15, whereas AtT20 cells were cultured in Dulbecco's minimal essential medium (DMEM) supplemented with 10% fetal calf serum. Both mediums were supplemented with L-glutamine (2 mmol/L) and penicillin (10^5 U/L). Short tandem repeat (str) profiling using a Powerplex Kit (Promega, Leiden, the Netherlands) of HAC15 and AtT20 gave results consistent with the ATCC database, confirming the identity of both cell lines. Medium and supplements were obtained from Invitrogen, Breda, the Netherlands. Once a week, cells were harvested with trypsin (0.05%)-EDTA (0.53 mM) and resuspended in culture medium. Levoketoconazole (COR-003) and racemic ketoconazole (both from Cortendo AB) were dissolved in absolute ethanol (EtOH), according to manufacturer's instructions, and stored at −20° C. at a stock concentration of […]. At the start of each experiment, both drugs were freshly prepared and diluted in EtOH in the correct concentrations. Synacten (synthetic ACTH, Novartis Pharma A.G.) stock concentration was stored at 4° C. and dissolved in culture medium at the day of use. The final concentrations of ACTH were chosen based on a dose-response curve in HAC15 cells and previously reported studies in the literature. For HAC15, 200,000 and 100,000 cells were plated in 0.5 ml medium in 24 well plates for experiments of 1 and 3 days, respectively. For AtT20, cell amounts were 100,000 and 30,000. One day after seeding the HAC15 cells, the medium was refreshed and cells were treated 1 or 3 days in quadruplicate with levoketoconazole or racemic ketoconazole (0.05-5 μM), with or without 10 nM ACTH. To study effects of both compounds on pituitary AtT20 cells, concentrations of 0.1 to 10 μM of both drugs were used. Controls were vehicle treated. […] Media were collected after 1 or 3 days of incubation and stored at −20° C. until analysis. All cell culture experiments were carried out at least twice.
as §3, §4

[5] = tested on: EAS associated adrenal hyperplasia no. 1 primary culture; assay: Steroid profile by LC/MS-MS in EAS associated adrenal hyperplasia no. 1; type: cell-based, human; details: EAS associated adrenal hyperplasia no. 1
Experimental: as §1
Primary culture conditions for primary cultures were similar as described in the section ‘cell culture and compounds’, but with small adjustments: ACTH was used at a concentration of 85 pM (250 pg/mL), treatment was started 3-4 days after plating of the cells and cells were incubated for 3 days, and; for pituitary primary cultures, levoketoconazole and racemic ketoconazole were only tested at a concentration of 1 μM. Owing to a limited number of cells obtained from the specimens, not all experiments were carried out in every primary culture.
as §3, §4

ACTH: Synacten (synthetic ACTH, Novartis Pharma A.G.), used to stimulate cortisol production
mean increase in cortisol by ACTH stimulation ([1]; 1 day of incubation): 34%
mean increase in cortisol by ACTH stimulation ([1]; 3 days of incubation): 61%
ACTH stimulated cortisol (%) [2]: +228%
ACTH stimulated cortisol (%) [3]: +67% *
increase of corticosterone under ACTH [4]: 359%
increase of progesterone under ACTH [4]: 7%
change of progesterone by ACTH stimulation [5]: −11%
change of testosterone by ACTH stimulation [5]: did not change
mean increase of corticosterone, 17-OHP, 11-DOC, cortisol and androstenedione by ACTH stimulation [5]: +111%
